Measured values as given in the NIST ThermoML archive (doi:10.1016/j.jct.2015.05.006).

What was measured:
[1] = xn = mol fraction of the nth substance listed; details: Liquid, Vibrating tube method
[2] = relative permittivity at various frequencies (dimensionless); xn = mol fraction of the nth substance listed; details: Liquid, Frequency=1 MHz, Parallel plate capacitor

COCCOC [1,2-dimethoxyethane] + CCCCCC
95.2 kPa
Details | mass density, [1] [kg/m3] | relative permittivity, [2]
288.15 K, x2 = 0 | 872.06 | 7.41
288.15 K, x2 = 0.0501 | 857.87 | –
288.15 K, x2 = 0.0513 | – | 6.89
288.15 K, x2 = 0.0904 | – | 6.46
288.15 K, x2 = 0.1049 | 842.87 | –
288.15 K, x2 = 0.1999 | – | 5.58
288.15 K, x2 = 0.2992 | – | 4.85
288.15 K, x2 = 0.2999 | 794.19 | –
288.15 K, x2 = 0.4004 | – | 4.19
288.15 K, x2 = 0.4059 | 770.33 | –
288.15 K, x2 = 0.4961 | 751.31 | –
288.15 K, x2 = 0.4983 | – | 3.65
288.15 K, x2 = 0.6001 | – | 3.17
288.15 K, x2 = 0.6054 | 729.6 | –
288.15 K, x2 = 0.694 | 713.16 | –
288.15 K, x2 = 0.7004 | – | 2.77
288.15 K, x2 = 0.7916 | 696.41 | –
288.15 K, x2 = 0.8057 | – | 2.41
288.15 K, x2 = 0.9022 | – | 2.14
288.15 K, x2 = 0.9035 | 678.43 | –
288.15 K, x2 = 0.9509 | – | 2.02
288.15 K, x2 = 0.9533 | 670.87 | –
298.15 K, x2 = 0 | 861.17 | 7.07
298.15 K, x2 = 0.0459 | – | 6.61
298.15 K, x2 = 0.0495 | 846.99 | –
298.15 K, x2 = 0.0955 | – | 6.19
298.15 K, x2 = 0.1011 | 833.13 | –
298.15 K, x2 = 0.2009 | 807.1 | –
298.15 K, x2 = 0.2013 | – | 5.36
298.15 K, x2 = 0.2992 | – | 4.67
298.15 K, x2 = 0.3031 | 782.87 | –
298.15 K, x2 = 0.398 | – | 4.07
298.15 K, x2 = 0.4027 | 760.92 | –
298.15 K, x2 = 0.4977 | 740.86 | –
298.15 K, x2 = 0.4984 | – | 3.53
298.15 K, x2 = 0.5959 | 721.71 | –
298.15 K, x2 = 0.6014 | – | 3.08
298.15 K, x2 = 0.6972 | 703.06 | –
298.15 K, x2 = 0.7019 | – | 2.7
298.15 K, x2 = 0.8016 | – | 2.38
298.15 K, x2 = 0.8051 | 684.57 | –
298.15 K, x2 = 0.8985 | 670 | –
298.15 K, x2 = 0.9031 | – | 2.11
298.15 K, x2 = 0.9477 | – | 2.01
308.15 K, x2 = 0 | 850.13 | 6.75
308.15 K, x2 = 0.0457 | 837.34 | –
308.15 K, x2 = 0.0494 | – | 6.3
308.15 K, x2 = 0.0927 | 824.63 | –
308.15 K, x2 = 0.0967 | – | 5.9
308.15 K, x2 = 0.1938 | – | 5.18
308.15 K, x2 = 0.2001 | 797.09 | –
308.15 K, x2 = 0.2984 | 773.76 | –
308.15 K, x2 = 0.3011 | – | 4.47
308.15 K, x2 = 0.3939 | 752.46 | –
308.15 K, x2 = 0.4025 | – | 3.91
308.15 K, x2 = 0.4989 | – | 3.44
308.15 K, x2 = 0.5082 | 728.75 | –
308.15 K, x2 = 0.5955 | 711.88 | –
308.15 K, x2 = 0.6018 | – | 3
308.15 K, x2 = 0.6927 | 694.24 | –
308.15 K, x2 = 0.699 | – | 2.66
308.15 K, x2 = 0.7982 | – | 2.36
308.15 K, x2 = 0.8036 | 675.37 | –
308.15 K, x2 = 0.901 | – | 2.09
308.15 K, x2 = 0.9023 | 660.16 | –
308.15 K, x2 = 0.9506 | – | 1.99
308.15 K, x2 = 0.9509 | 653.01 | –

COCCOC [1,2-dimethoxyethane] + CCCCCCCCCCCC
97 kPa
Details | mass density, [1] [kg/m3] | relative permittivity, [2]
288.15 K, x2 = 0 | 872.06 | 7.41
288.15 K, x2 = 0.05 | – | 6.6
288.15 K, x2 = 0.0501 | 856.95 | –
288.15 K, x2 = 0.101 | 843.87 | –
288.15 K, x2 = 0.1013 | – | 5.92
288.15 K, x2 = 0.2007 | – | 4.89
288.15 K, x2 = 0.2009 | 823.2 | –
288.15 K, x2 = 0.3011 | 807.11 | –
288.15 K, x2 = 0.3016 | – | 4.13
288.15 K, x2 = 0.402 | – | 3.57
288.15 K, x2 = 0.4022 | 794.1 | –
288.15 K, x2 = 0.5014 | 783.69 | –
288.15 K, x2 = 0.5015 | – | 3.15
288.15 K, x2 = 0.6016 | – | 2.81
288.15 K, x2 = 0.6019 | 774.99 | –
288.15 K, x2 = 0.6998 | – | 2.53
288.15 K, x2 = 0.7001 | 767.94 | –
288.15 K, x2 = 0.8049 | 761.62 | –
288.15 K, x2 = 0.8051 | – | 2.33
288.15 K, x2 = 0.9011 | 756.69 | –
288.15 K, x2 = 0.9019 | – | 2.16
288.15 K, x2 = 0.9514 | 754.42 | –
288.15 K, x2 = 0.9515 | – | 2.1
298.15 K, x2 = 0 | 861.17 | 7.07
298.15 K, x2 = 0.0499 | 846.45 | –
298.15 K, x2 = 0.05 | – | 6.31
298.15 K, x2 = 0.1013 | 833.6 | –
298.15 K, x2 = 0.102 | – | 5.66
298.15 K, x2 = 0.2014 | – | 4.71
298.15 K, x2 = 0.2016 | 813.45 | –
298.15 K, x2 = 0.3016 | – | 4
298.15 K, x2 = 0.3019 | 797.83 | –
298.15 K, x2 = 0.4011 | – | 3.48
298.15 K, x2 = 0.4015 | 785.4 | –
298.15 K, x2 = 0.5059 | 774.85 | –
298.15 K, x2 = 0.5061 | – | 3.06
298.15 K, x2 = 0.6021 | 766.88 | –
298.15 K, x2 = 0.6047 | – | 2.75
298.15 K, x2 = 0.7021 | 760.01 | –
298.15 K, x2 = 0.7033 | – | 2.51
298.15 K, x2 = 0.8048 | 754.06 | –
298.15 K, x2 = 0.8055 | – | 2.31
298.15 K, x2 = 0.9024 | – | 2.15
298.15 K, x2 = 0.9025 | 749.21 | –
298.15 K, x2 = 0.9491 | 747.21 | –
298.15 K, x2 = 0.9498 | – | 2.09
308.15 K, x2 = 0 | 850.13 | 6.75
308.15 K, x2 = 0.0495 | 835.93 | –
308.15 K, x2 = 0.05 | – | 6.04
308.15 K, x2 = 0.0982 | 824.01 | –
308.15 K, x2 = 0.1018 | – | 5.44
308.15 K, x2 = 0.2021 | 803.62 | –
308.15 K, x2 = 0.2026 | – | 4.53
308.15 K, x2 = 0.2982 | 789.08 | –
308.15 K, x2 = 0.3027 | – | 3.87
308.15 K, x2 = 0.4018 | 776.58 | –
308.15 K, x2 = 0.4043 | – | 3.38
308.15 K, x2 = 0.5024 | 766.76 | –
308.15 K, x2 = 0.505 | – | 3
308.15 K, x2 = 0.6046 | 758.6 | –
308.15 K, x2 = 0.6068 | – | 2.7
308.15 K, x2 = 0.6951 | 752.57 | –
308.15 K, x2 = 0.7013 | – | 2.48
308.15 K, x2 = 0.8031 | 746.52 | –
308.15 K, x2 = 0.806 | – | 2.28
308.15 K, x2 = 0.8975 | – | 2.14
308.15 K, x2 = 0.899 | 741.95 | –
308.15 K, x2 = 0.9502 | 739.81 | –
308.15 K, x2 = 0.9512 | – | 2.07
